Results on 1 compound are retold here after patent US20190093170A1, “USE OF TRANSLATIONAL PROFILING TO IDENTIFY TARGET MOLECULES FOR THERAPEUTIC TREATMENT” (THE REGENTS OF THE UNIVERSITY OF CALIFORNIA, priority 2013, published 2019).

The subject of the experiment is Pten^L/L prostate cancer mouse model. In words: Pharmacological treatment of Pten^L/L mice (preclinical trial; IHC, immunofluorescence, histology, MRI, lymph node metastasis). It is filed as in vivo. The note with it: 28 days, RAD001 10 mg/kg daily. An excerpt:
Weight measurements were taken every 3 days to monitor for toxicity. For the 28-day study, mice were imaged via MRI at day 0 and day 28 in a 14-T GE MR scanner (GE Healthcare).
Whole mouse prostates were removed from wild-type and Pten^L/L mice, microdissected, and frozen in liquid nitrogen. Frozen tissues were subsequently manually disassociated using a biopulverizer (Biospec) and additionally processed for protein and mRNA analysis as described above.
Prostates and lymph nodes were dissected from mice within 2 hr of the indicated treatment and fixed in 10% formalin overnight at 4° C. Tissues were subsequently dehydrated in ethanol (Sigma) at room temperature, mounted into paraffin blocks, and sectioned at 5 μm. Specimens were de-paraffinized and rehydrated using CitriSolv (Fisher) followed by serial ethanol washes. […] Sections were washed in distilled water followed by TBS washes. The sections were then incubated in 5% goat serum, 1% BSA in TBS for 1 hr at room temperature. Various primary antibodies were used, including those specific for keratin 5 (Covance), cytokeratin 8 (Abcam and Covance), YB1 (Abcam), vimentin (Abcam), MTA1 (Cell signaling), CD44 (BD Pharmingen), and the androgen receptor (Epitomics), which were diluted 1:50-1:500 in blocking solution and incubated on sections overnight at 4° C. Specimens were then washed in TBS and incubated with the appropriate Alexa 488 and 594 labeled secondary (Invitrogen) at 1:500 for 2 hr at room temperature, with the exception of YB1 which was incubated with biotinylated anti-rabbit secondary (Vector) followed by incubation with Alexa 594 labeled Streptavidin (Invitrogen). A final set of washes in TBS was completed at room temperature followed by mounting with DAPI Hardset Mounting Medium (Vector Lab). A Zeiss Spinning Disc confocal (Zeiss, CSU-X1) was used to image the sections at 40×-100×. Individual prostate cells were quantified for mean fluorescence intensity (m.f.i.) using the Axiovision (Zeiss, Release 4.8) densitometric tool.
Mouse lymph nodes were processed as described above and stained for CK8 and androgen receptor. Lymph nodes were imaged using a Zeiss AX10 microscope. Metastases were identified and areas were measured using the Axiovision (Zeiss, Release 4.8) measurement tool.
Immunohistochemistry was performed as described above (see “Immunofluorescence”) with the exception that immediately after antigen […] and TBS washes, specimens were incubated in 3% hydrogen peroxide in TBS followed by TBS washes. The following primary antibodies were used: phospho-AKT^S473 (Cell Signaling), phospho-rpS6^S240/244 (Cell Signaling), phospho-4EBP1^T37/46 (Cell Signaling), phospho-histone H3 (Upstate), and cleaved caspase (Cell Signaling). […] The protein of interest was detected using DAB (Sigma). […]

[1] abbreviates: ATP site inhibitor of mTOR 1 mg/kg daily.

In the case of `CO[C@H]1C[C@@H]2CC[C@@H](C)[C@@](O)(O2)C(=O)C(=O)N2CCCC[C@H]2C(=O)O[C@H]([C@H](C)C[C@@H]2CC[C@@H](OCCO)[C@H](OC)C2)CC(=O)[C@H](C)/C=C(\C)[C@@H](O)[C@@H](OC)C(=O)[C@H](C)C[C@H](C)/C=C/C=C/C=C/1C` [RAD001], the “regression of PIN lesions” value was “only partial regression of PIN lesions”. In addition, under setting [1], the “4EBP1 and p70S6K1/2 phosphorylation” value is “only decreased p70S6K1/2 phosphorylation levels”; the “apoptosis (cleaved caspase 3)” value is recorded as “no significant effect”; the “proliferation (phospho-histone H3)” value was “limited decrease in cell proliferation”.
